Laboratory results as given in ChEMBL document CHEMBL5252623, “Discovery of 3-phenyl-1,2,4-oxadiazole derivatives as a new class of SARS-CoV-2 main protease inhibitors” (Bioorg Med Chem Lett, 2023).

biological target: Replicase polyprotein 1ab (Severe acute respiratory syndrome coronavirus 2, UniProt P0DTD1); assay: Inhibition of SARS-CoV-2 main protease expressed in Escherichia coli BL21 (DE3) using MDA-AVLQSGFR-Lys(Dnp)-Lys-NH2 as substrate incubated for 10 mins by FRET analysis

`O=C(CCc1ccccc1)NCc1nc(-c2ccc(C(F)(F)F)cc2)no1` and `O=C(NCc1nc(-c2ccc(C(F)(F)F)cc2)no1)c1ccccc1` are within 1.5-fold of each other in IC50: 90.5 µM for the first, 62 µM for the second.

`CC1=C(c2ccccc2)C1C(=O)NC(Cc1cccc(F)c1)c1nc(-c2ccc(C(F)(F)F)cc2)no1` (stereo not given) and `CC1=C(c2ccccc2)C1C(=O)NC(Cc1ccc(F)cc1)c1nc(-c2ccc(C(F)(F)F)cc2)no1` (stereo not given) are within 1.5-fold of each other in IC50: 14.2 µM for the first, 16.5 µM for the second.

Compared with `CC1=C(c2ccccc2)C1C(=O)NCc1nc(-c2cccc(C(F)(F)F)c2)no1` (stereo not given), `CC1=C(c2ccccc2)C1C(=O)NCc1nc(-c2ccc(C(F)(F)F)cc2)no1` (stereo not given) is 2.1-fold lower in IC50: 14.3 µM for the first, 6.71 µM for the second. The second is the more potent here.

`CC1=C(c2ccccc2)C1C(=O)NC(Cc1ccccc1F)c1nc(-c2ccc(C(F)(F)F)cc2)no1` (stereo not given) and `CC1=C(c2ccccc2)C1C(=O)NC(Cc1ccccc1)c1nc(-c2ccc(C(F)(F)F)cc2)no1` (stereo not given) are within 1.5-fold of each other in IC50: 7.48 µM for the first, 5.27 µM for the second.

Going from `O=C(/C=C/c1ccccc1)NCc1nc(-c2ccc(C(F)(F)F)cc2)no1` to `O=C(/C=C/c1ccccn1)NCc1nc(-c2ccc(C(F)(F)F)cc2)no1`, the IC50 rises from 46.3 µM to 102 µM (2.2-fold).

First: CC1=C(c2ccccc2)C1C(=O)NC(CC1CCCCC1)c1nc(-c2ccc(C(F)(F)F)cc2)no1 (stereo not given)
Second: CC1=C(c2ccccc2)C1C(=O)NC(CC1CC1)c1nc(-c2ccc(C(F)(F)F)cc2)no1 (stereo not given)
The IC50 of the first is 4-fold lower: 19.4 µM for the first, 76.8 µM for the second.

`O=C(/C=C/c1ccco1)NCc1nc(-c2ccc(C(F)(F)F)cc2)no1` and `O=C(/C=C/c1cccs1)NCc1nc(-c2ccc(C(F)(F)F)cc2)no1` are within 1.5-fold of each other in IC50: 60.5 µM for the first, 54.6 µM for the second.

`CC1=C(c2ccccc2)C1C(=O)NCc1nc(-c2ccccc2)no1` (stereo not given) and `CC1=C(c2ccccc2)C1C(=O)NCc1nc(-c2ccccc2C(F)(F)F)no1` (stereo not given) are within 1.5-fold of each other in IC50: 79.6 µM for the first, 66.9 µM for the second.

Compared with `O=C(C#Cc1ccccc1)NCc1nc(-c2ccc(C(F)(F)F)cc2)no1`, `C/C=C/C(=O)NCc1nc(-c2ccc(C(F)(F)F)cc2)no1` is 5.3-fold higher in IC50: 46.9 µM for the first, 250 µM for the second.

Going from `CC1=C(c2ccccc2)C1C(=O)NC(Cc1ccc2ccccc2c1)c1nc(-c2ccc(C(F)(F)F)cc2)no1` (stereo not given) to `CC1=C(c2ccccc2)C1C(=O)NC(Cc1cc2ccccc2[nH]1)c1nc(-c2ccc(C(F)(F)F)cc2)no1` (stereo not given), the IC50 rises from 6.47 µM to 14.7 µM (2.3-fold).
